According to patent US8592344B2, “Pesticidal compositions comprising 4,5-dihydroxyindan-1-one” (Yissum Research Development Company of The Hebrew …, priority 2009, dated 2013):

Key:
[1] = system: citrus rust mite, Phyllocoptruta oleivora; test: whole plant or invertebrate; format: in vivo; details: recorded 24 h later
Experimental: The CRM population was obtained from Mineola Tangelo (C. paradisi×C. reticulata) fruits at the Tzrifin farm, on the coastal plain of Israel. No acaricides are being used at this farm, making the location a suitable place for our purposes. In the laboratory the pest was reared on young seedlings (6-8 weeks old) of sour orange (Citrus aurantium).
In order to determine the CRM dose response to the toxin, 0.01, 0.02, 0.05, 0.1, 0.2 and 0.4 mg/ml of RPLC-cleaned toxin, dissolved in a two ml volume of ddH2O, was sprayed on the CRM (thirty CRMs/leaf, in four replicates). The infested seedlings were incubated at 25° C., (12L: 12D). Mite mortality rates were recorded 24 h later.

[2] = system: Agrobacterium tumefaciens (strain ID1); test: Antibacterial activity, inhibition haloes of chromatographed fractions; format: cell-based; details: RPLC fraction in 10 μl methanol, 24 hours, 28° C.
Experimental: The bacterium was grown overnight in glass tubes containing a 5 ml Lennox Broth (LB, Difco). Fifty μl overnight-grown bacterial suspensions were added to 5 ml of LB containing 0.6% agar, and placed into Petri dishes (55 mm diameter). Each of the eluted chromatographed fractions was dried using a rotor evaporator, dissolved in 10 μl of methanol, pipetted into the Petri dishes and incubated at 28° C. Each dish was checked for inhibition haloes 24 hours later; 10 μl methanol alone was used as a control. This procedure was repeated four times to confirm of the toxicity of the fractions. The RPLC-cleaned fraction that was antagonistic to A. tumefaciens was concurrently assayed against the citrus rust mite (describe below).

## O=C1CCc2c1ccc(O)c2O [argovin, 4,5-dihydroxyindan-1-one]
[1]; 0.01 mg/ml sprayed, control 6%
  mortality at 10 µg/mL: 39%
[1]; 0.2 mg/ml sprayed
  mortality at 200 µg/mL: 100%
[2]
  activity against A. tumefaciens (inhibition halo): active
